# Experimental data: patent publication US4735793A, “Carboxy, carboalkoxy and carbamile substituted isonitrile radionuclide complexes” (Massachusetts Institute of Technology, priority 1985, dated 1988)
# Experiments:
# [1] = rabbit, in vivo, iv
# Protocol: (§2) Rabbits were anesthetized with Ketamine and Nembutal™ and positioned beneath a gamma camera to allow continuous collection of data including a chest and abdomen view. 1 mCi of the test agent as specified below was injected via an ear vein and data collected continuously at 60 second intervals for 60 minutes. Curves were generated by drawing regions of interest over selected tissues and normalizing to counts per minute per pixel.
# The time of maximum activity in the liver post injection is "^t max", while "t1/2" is the apparent half life of the clearance curve from ^t max. The latter data is an estimate based on data collected to 60 minutes after administration. This assumes a simple exponential curve with time, although more extensive studies might indicate more components are actually present.
# [2] = Scintigraphic images in animal and human tests; type: in vivo; details: for usefulness for imaging the heart: in vivo
# Protocol: Scintigrapic Imaging Procedure in Animals
# (§1) Two rabbits were anesthetized with sodium pentobarbital and injected via an ear vein with 3-8 mCi of ^99m Tc-isonitrile complex. One rabbit was imaged using a gamma camera equipped with a pinhole collimator positioned directly over the chest. Three minute static images were acquired at 5, 10, […], 40, 50 and 60 minutes post injection. A second rabbit was used to investigate the relative whole body distribution of activity for 60 minutes post-injection. Immediately post-injection, 300 thousand count images were acquired in the following sequence of projections: chest, anterior heart, whole body, anterior heart, left lateral whole body, anterior heart, lateral heart, anterior heart.
# Swine were sedated with intramuscular injections of Ketamine and acepromazine, and anesthetized with sodium pentobarbital. The animals were positioned for anterior image acquisition over the chest under a low energy, high resolution collimator and injected with 10-12 mCi ^99m Tc-isonitrile complex via a leg vein. The liver was covered with a lead shield, and three minute images were acquired at 5, 10, 20, 30, 40, 50 and 60 minutes post-injection.
# After anesthetization with sodium pentobarbital, dogs were injected with 25 mCi of ^99m Tc and positioned for anterior chest image acquisition using a pinhole collimator. Again, three minute images were obtained at 5, 10, 20, 30, 40, 50 and 60 minutes post-injection.
# [3] = Scintigraphic imaging of the heart in rabbits; type: in vivo, rabbit
# Protocol: as §1
# FIG. 6(a) is a scintigraphic image of a rabbit injected with a complex of ^99m Tc-carboethoxyisopropylisonitrile at 5 minutes after injection, while FIG. 6(b) is a scintigraphic image of the same rabbit at 15 minutes after injection. FIG. 7(a) is a scintigraphic image of a rabbit injected with a complex of ^99m Tc-2-carboethoxyethylisonitrile at 1, 10, 15 and 20 minutes post injection. FIG. 7 (b) is a scintigraphic image of a rabbit injected with the above complex at 31 minutes post-injection. The heart is at (A), the gall bladder at (B) and the site of injection at (C). The interpretation of these images is known to the person of ordinary skill in this field.
# [4] = rabbit, in vivo
# Protocol: as §2
# The complexes were prepared, injected and imaged as described above.
Compound,t1/2 (apparent half life of the liver clearance curve from tmax) [1] [min],tmax (time of maximum activity in the liver post injection) [1] [min],usefulness for imaging the heart [2],"resolution of the apex of the heart ([3]; by 20 minutes after injection, after liver clearance)",resolution of the myocardium ([3]; five minutes after injection),"visualization of the apex of the heart ([3]; initially, background noise from liver uptake)",lung clearance [4],image quality ([2]; animal and human tests)
"[C-]#[N+]C(C)C [CNC(CH3)2 R, R = --H, isopropylisonitrile, reference compound]",98,5,,,,,,
"[C-]#[N+]C [CNCH2 R, R = --H, methyl isonitrile, reference compound]",88,14,,,,,,
"[C-]#[N+]CC [CNCH(R)CH3, R = --H, ethyl isonitrile, reference compound]",270,2,,,,,,
"Hexakis carbomethoxymethylisonitrile Technetium Cation [CNCH2 R, R = --COOCH3]",37,1,,,,,,
"^99m TC-hexakis carbo-t-butoxymethylisonitrile technetium [CNCH2 R, R = --COO^t C4 H9]",25,5,,,,,,
"^99m Tc-Hexakis-1-carbomethoxyisopropylisonitrile Technetium (I) [CNC(CH3)2 R, R = --COOCH3]",35,3,particularly useful for imaging the heart,excellent resolution of the apex,very good to excellent resolution of the myocardium,initially prevents clear visualization of the apex of the heart,rapid lung clearance,
"^99m Tc-Hexakis-2-carboethoxyethylisonitrile Technetium (I) [CNCH2 CH2 R, R = --COOC2 H5]",17,2,particularly useful for imaging the heart,,,,,excellent images in both animal and human tests
